Like-named read-outs stand apart in the source and are kept apart here.
Columns and labels:
[1] = molecular target: T1, HIV-1 protease (Human immunodeficiency virus type 1 group M subtype B, UniProt P04585, Q495S); experiment: HIV-1 Protease RET assay (Ki, resonance energy transfer); assay type: biochemical; settings: Q7S mutant HIV-1 protease; read-out: Ki (nm)
T1 construct: made in house
Procedure: Ki's for the inhibitors of HIV-1 protease were determined using a resonance energy transfer (RET) assay. […] This enzyme is first partially purified as inclusion bodies from cell lysate. It is then solublized in 8M urea and passed through a Q-Sepharose column (Pharmacia) for further purification. To refold this protein, samples containing Q7S is dialyzed into 50 mM sodium phosphate pH 7.0, 50 mM NaCl, 10 mM DTT, and 10% glycerol.
The commercially available peptide substrate (Molecular Probes Cat. # H-2930) RE(EDANS)SQNYPIVQK(DABCYL)R is used to assess activity and Ki's. This peptide is cleaved quantitatively by HIV-1 Pr at the Tyr-Pro bond. The EDANS fluorophore absorbs at 340 nm and emits at 490 nm. The reaction is carried out in a 96 well plate in a total volume of 100 µL and is run for 12 minutes at 37C under steady-state conditions with 5 µM substrate and 2 nM active dimer enzyme concentration. The literature value Km for this substrate and enzyme is 103+/−8 μM (See Matayoshi, et al., “Novel Fluorogenic Substrates for Assaying Retroviral Proteases by Resonance Energy Transfer,” Science 247, 954 (1990)). The buffer for this reaction is 0.1M sodium acetate pH 4.8, 1M NaCl, 1 mM EDTA, 5 mM dithiothreitol, 10% dimethyl sulfoxide and 1 mg/ml bovine serum albumin. Inhibition curves are fit using the Morrison tight binding equation.

[2] = system: HIV-1; experiment: Antiviral EC50 in HIV-infected T-cell lines (CPE inhibition / susceptibility assays); assay type: cell-based; settings: Human immunodeficiency virus 1, T-cell
Procedure: T-cell lines, CEM-SS, and MT-2, and viruses HIV-1 RF and HIV-1 NL4-3 (pNL4-3) were obtained from the National Institutes of Health (AIDS Research and Reference Reagent Program, Bethesda, MD).
The ability of compounds to protect cells against HIV infection was measured by the […] dye reduction method, essentially as described (See Pauwels, R. Balzarini, J. Baba, M. Snoeck, R. Schols, D. Herdewijn, P. Desmyter, J. and De Clercq, E. 1988, “Rapid and automated tetrazolium-based colorimetric assay for the detection of anti-HIV compounds,”. J Virol. Methods., 20: 309-321 and Weislow, O. S. Kiser, R. Fine, D. L. Bader, J. Shoemaker, R. H. and Boyd, M. R. 1989. “New soluble-formazan assay for HIV-1 cytopathic effects: application to high-flux screening of synthetic and natural products for AIDS-antiviral activity”. J. Natl. Cancer Inst. 81:577-586). Subject cells were infected with test virus at an moi of 0.025 to 0.819 or mock infected with medium only and added at 2×10^4 cells per well into 96 well plates containing half-log dilutions of test compounds. Six days later, 50 μl of XTT (1 mg/ml XTT tetrazolium, […] phenazine methosulfate) was added to the wells and the plate was reincubated for four hours. Viability, as determined by the amount of XTT formazan produced, was quantified spectrophotometrically by absorbance at 450 nm. Data from CPE assays were expressed as the percent of formazan produced in compound-treated cells compared to formazan produced in wells of uninfected, compound-free cells. The fifty percent effective concentration (EC50) was calculated as the concentration of compound that effected an increase in the percentage of formazan production in infected, compound-treated cells to 50% of that produced by uninfected, compound-free cells. The 50% cytotoxicity concentration (CC50) was calculated as the concentration of compound that decreased the percentage of formazan produced in uninfected, compound-treated cells to 50% of that produced in uninfected, compound-free cells. The therapeutic index was calculated by dividing the cytotoxicity (CC50) by the antiviral activity (EC50).
Compounds were tested in phenotypic susceptibility assays at Virologic, Inc., (See Petropoulos C. J., Parkin N. T., Limoli K. L., Lie Y. S., Wrin T., Huang W., Tian H., Smith D., Winslow G. A., Capon D J, Whitcomb J M. 2000, “A novel phenotypic drug susceptibility assay for human immunodeficiency virus type 1,” Antimicrob Agents Chemother 44(4):920-928) or using the assay described here. MT-2 cells were infected with either HIV-1 NL4-3 or HIV-1 NL4-3(I84V/L90M) and incubated in the presence of serial 0.5 log dilutions of test compounds. Three days later, culture supernatants were collected and virus production, as determined by p24 ELISA, was assayed. Percent inhibition was calculated as p24 concentration in compound-treated samples as compared to infected, compound-free controls. Inhibition of viral replication is determined by measuring reduction in HIV p24 present in the culture supernatant, using a Beckman-Coulter p24 HIV-1 Ag EIA kit and following the supplied protocol. Absorbance is read on a MRX microplate reader (Dynex Technologies). The EC50 was calculated as the concentration of compound that effected a decrease in the p24 production by infected, compound-treated cells to 50% of that produced by infected, compound-free cells.

[3] = read-out: EC50 (wt) (nm), wt virus
[4] = read-out: Ave. EC50, average, unit inferred

Row | Compound | Ki [1] | EC50 [2, 3] | EC50 [2, 4]
1 | Cc1ccccc1CNC(=O)[C@H]1N(C(=O)[C@@H](O)[C@H](Cc2cccc(F)c2)NC(=O)c2cccc(O)c2C)CC(F)(F)C1(C)C | < 0.1 nM | 17 nM | 
2 | CCCNC(=O)C1N(C(=O)[C@@H](O)[C@H](Cc2ccccc2)NC(=O)c2cc(C)cc(O)c2C)CC(F)(F)C1(C)C (some centres unmarked) | < 0.1 nM | 9 nM | 
3 | C=CCNC(=O)[C@H]1N(C(=O)[C@@H](O)[C@H](Cc2ccccc2)NC(=O)c2cccc3c2CCN3)CC(F)(F)C1(C)C | < 0.1 nM | 16 nM | 
4 | C=CCNC(=O)[C@H]1N(C(=O)[C@@H](O)[C@H](Cc2cccc(C(F)(F)F)c2)NC(=O)c2cccc(O)c2C)CC(F)(F)C1(C)C | < 0.1 nM | 42 nM | 
5 | C=CCNC(=O)[C@H]1N(C(=O)[C@@H](O)[C@H](Cc2cccc(F)c2)NC(=O)c2cc(C)cc(O)c2C)CC(F)(F)C1(C)C | < 0.1 nM | 25 nM | 
6 | Cc1cc(O)c(C)c(C(=O)N[C@@H](Cc2cccc(F)c2)[C@H](O)C(=O)N2CC(F)(F)C(C)(C)[C@H]2C(=O)NCc2ccccc2F)c1 | < 0.1 nM | 6.7 nM | 
7 | CC[C@@H](COC)NC(=O)[C@H]1N(C(=O)[C@@H](O)[C@H](Cc2ccccc2)NC(=O)c2cc(C)cc(O)c2C)CC(F)(F)C1(C)C | < 0.1 nM | 30 nM | 
8 | CCNC(=O)[C@H]1N(C(=O)[C@@H](O)[C@H](Cc2ccccc2)NC(=O)c2c(C)ccc(O)c2C)CC(F)(F)C1(C)C | < 0.1 nM | 35 nM | 
9 | CCC(C)NC(=O)[C@H]1N(C(=O)[C@@H](O)[C@H](Cc2ccccc2)NC(=O)c2cccc(O)c2C)CC(F)(F)C1(C)C (some centres unmarked) | < 0.1 nM | 31 nM | 
10 | CCC(C)NC(=O)C1N(C(=O)C(O)C(Cc2ccccc2)NC(=O)c2cc(C)cc(O)c2C)CC(F)(F)C1(C)C (centres unmarked) | < 0.1 nM | 16 nM | 
11 | Cc1ccc(O)c(C)c1C(=O)N[C@@H](Cc1ccccc1)[C@H](O)C(=O)N1CC(F)(F)C(C)(C)[C@H]1C(=O)NCC(C)C | < 0.1 nM | 44 nM | 
12 | CCCNC(=O)[C@H]1N(C(=O)[C@@H](O)[C@H](Cc2ccccc2)NC(=O)c2c(C)ccc(O)c2C)CC(F)(F)C1(C)C | < 0.1 nM | 33 nM | 
13 | C=CCNC(=O)[C@H]1N(C(=O)[C@@H](O)[C@H](Cc2cccc(F)c2)NC(=O)c2cccc3c2CCN3)CC(F)(F)C1(C)C | < 0.1 nM | 35 nM | 
14 | Cc1cc(O)c(C)c(C(=O)N[C@@H](Cc2ccccc2)[C@H](O)C(=O)N2CC(F)(F)C(C)(C)C2C(=O)NCC(C)C)c1 (some centres unmarked) | < 0.1 nM | 31 nM | 
15 | CC(C)CNC(=O)[C@H]1N(C(=O)[C@@H](O)[C@H](Cc2ccccc2)NC(=O)c2cccc3c2CCN3)CC(F)(F)C1(C)C | < 0.1 nM | 35 nM | 
16 | Cc1cc(O)c(C)c(C(=O)N[C@@H](Cc2cccc(F)c2)[C@H](O)C(=O)N2CC(F)(F)C(C)(C)C2C(=O)NCC(C)C)c1 (some centres unmarked) | < 0.1 nM | 11 nM | 
17 | Cc1c(O)cccc1C(=O)N[C@@H](Cc1cccc(F)c1)[C@H](O)C(=O)N1CC(F)(F)C(C)(C)C1C(=O)NCC(C)C (some centres unmarked) | < 0.1 nM | 13 nM | 
18 | CC(C)CNC(=O)[C@H]1N(C(=O)[C@@H](O)[C@H](Cc2cccc(F)c2)NC(=O)c2cccc3c2CCN3)CC(F)(F)C1(C)C | < 0.1 nM | 42 nM | 

Row | Compound | Ki [1] | EC50 [2, 3] | EC50 [2, 4]
19 | CCCCNC(=O)[C@H]1N(C(=O)[C@@H](O)[C@H](Cc2cccc(F)c2)NC(=O)c2cccc(O)c2C)CC(F)(F)C1(C)C | < 0.1 nM | 32 nM | 
20 | Cc1cc(O)c(C)c(C(=O)N[C@@H](Cc2cccc(F)c2)[C@H](O)C(=O)N2CC(F)(F)C(C)(C)[C@H]2C(=O)NCC(F)(F)F)c1 | < 0.1 nM | 14 nM | 
21 | Cc1c(O)cccc1C(=O)N[C@@H](Cc1cccc(F)c1)[C@H](O)C(=O)N1CC(F)(F)C(C)[C@H]1C(=O)NCC(F)(F)F (some centres unmarked) | < 0.1 nM | 10 nM | 
22 | COC[C@H](C)NC(=O)[C@H]1N(C(=O)[C@@H](O)[C@H](Cc2cccc(F)c2)NC(=O)c2cccc(O)c2C)CC(F)(F)C1(C)C | < 0.1 nM | 100 nM | 
23 | Cc1c(O)cccc1C(=O)N[C@@H](Cc1ccccc1)[C@H](O)C(=O)N1CC(F)(F)C(C)(C)[C@H]1C(=O)NCc1ccncc1 | < 0.1 nM | 130 nM | 
24 | Cc1cc(O)c(C)c(C(=O)N[C@@H](Cc2ccccc2)[C@H](O)C(=O)N2CC(F)(F)C(C)(C)[C@H]2C(=O)NCc2ccncc2)c1 | 0.26 nM | 110 nM | 
25 | CCCNC(=O)[C@H]1N(C(=O)[C@@H](O)[C@H](Cc2cccc(F)c2)NC(=O)c2cc(C)cc(O)c2C)CC(F)(F)C1(C)C | < 0.1 nM | 14 nM | 
26 | Cc1c(O)cccc1C(=O)N[C@@H](Cc1ccccc1)[C@H](O)C(=O)N1CC(F)(F)C(C)(C)[C@H]1C(=O)NCC(C)(C)C | < 0.1 nM | 4.7 nM | 
27 | Cc1c(O)cccc1C(=O)N[C@@H](Cc1ccccc1)[C@H](O)C(=O)N1CC(F)(F)C(C)(C)[C@H]1C(=O)NCc1ccccc1F | < 0.1 nM | 16 nM | 
28 | C=CCNC(=O)[C@H]1N(C(=O)[C@@H](O)[C@H](Cc2ccccc2)NC(=O)c2cccc(O)c2C)CC(O)C1(C)C (some centres unmarked) | 3.6 nM | 470 nM | 
29 | Cc1c(O)cccc1C(=O)N[C@@H](Cc1ccccc1)[C@H](O)C(=O)N1CC(O)C(C)(C)[C@H]1C(=O)NCC(C)C (some centres unmarked) | 0.7 nM | 450 nM | 
30 | Cc1ccccc1CNC(=O)[C@H]1N(C(=O)[C@@H](O)[C@H](Cc2ccccc2)NC(=O)c2cccc(O)c2C)CC(O)C1(C)C (some centres unmarked) | < 0.1 nM | 140 nM | 
31 | COC1CN(C(=O)[C@@H](O)[C@H](Cc2ccccc2)NC(=O)c2cccc(O)c2C)[C@H](C(=O)NCc2ccccc2F)C1(C)C (some centres unmarked) | 0.34 nM | 1000 nM | 
32 | Cc1cc(O)c(C)c(C(=O)N[C@@H](Cc2ccccc2)[C@H](O)C(=O)N2CC(C)(O)C(C)(C)[C@H]2C(=O)NCc2ccccc2C)c1 (some centres unmarked) | < 0.1 nM | 12 nM | 
33 | Cc1ccccc1CNC(=O)[C@H]1N(C(=O)[C@@H](O)[C@H](Cc2ccccc2)NC(=O)c2cccc(O)c2C)CC(C)(O)C1(C)C (some centres unmarked) | < 0.1 nM | 33 nM | 
34 | CCCNC(=O)[C@H]1N(C(=O)[C@@H](O)[C@H](Cc2ccccc2)NC(=O)c2cc(C)cc(O)c2C)CC(F)(F)C1(C)C [Example D14, (S)-4,4-Difluoro-1-1-[(2S,3S)-2-hydroxy-3-(3-hydroxy-2,5-dimethyl-benzoylamino)-4-phenyl-butyryl]-3,3-dimethyl-pyrrolidine-2-carboxylic acid propylamide] |  |  | 9 nM
35 | Cc1cc(O)c(C)c(C(=O)N[C@@H](Cc2ccccc2)[C@H](O)C(=O)N2CC(F)(F)C(C)(C)[C@H]2C(=O)NCC(C)C)c1 [Example D15, (S)-4,4-Difluoro-1-1-[(2S,3S)-2-hydroxy-3-(3-hydroxy-2,5-dimethyl-benzoylamino)-4-phenyl-butyryl]-3,3-dimethyl-pyrrolidine-2-carboxylic acid isobutyl-amide] |  |  | 11 nM

Reference: patent US20050124683A1, “HIV protease inhibitors, compositions containing the same, their pharmaceutical uses and materials for their synthesis” (priority 2003, published 2005)
